This is an account of results in article PMC6600574 (Molecules, 2019).

In one assay the test system is PBMCs. Details: method as in Sipahi et al. (2016) [21]. The following applies: aqueous extract of verbascoside; ref Sipahi et al. (2016) [21]; read-out: PBMC cellular toxicity IC50; cited from earlier work.
Assay [1] in a line: DPPH radical scavenging assay. The conditions noted are these: DPPH in ethanol, 30 min. The class given is biochemical. The method, then: Ascorbic acid was serially diluted to a concentration range of 0.78–100 µg/mL. Ethanol (10%) was used as a blank. Ninety microliters of a […] DPPH (2,2-diphenyl-1-picrylhydrazyl) in ethanol were added to each well. The plates were incubated for 30 min and covered in a layer of foil. Color controls (negative controls) were prepared in the exact same manner as above, but distilled water was added to each well instead of DPPH. The absorbances were measured at a wavelength of 515 nm using a BIO-TEK Power-Wave XS multiplate reader (BIO-TEK Instruments, Winooski, VT, USA). From the absorbances an IC50 value was determined.
On the technique in general: DPPH is a stable violet radical that fades when it is reduced.

The subject of assay [2] is peripheral blood mononuclear cells (PBMC). In words: Cellular antiproliferative activity (PrestoBlue). The class given is cell-based, human. The conditions noted are these: 48 h, read-out: Peripheral Blood Mononuclear Cell (PBMC) IC50. The method, then:
(2012) was performed. PBMC isolation and testing was approved by the Ethics Committee of the Department of Natural and Agricultural Sciences, University of Pretoria, Pretoria (Doc nr: EC120411-046; 17.05.2012). Briefly, peripheral blood mononuclear cells were isolated from blood that was freshly donated on the same day at the Student Clinic at the University of Pretoria. Mononuclear cells were isolated by centrifugation over Ficoll-Hypaque, a density gradient solution, with a density gradient of 1.07 g/mL. A layer of fresh heparinized venous blood was layered on the Ficoll-Hypaque at a ratio of 1:1 with supplemented RPMI 1640 media and then subjected to centrifugation at 3000 rpm for 30 min. Through centrifugation, the whole blood sample was separated into its different layers. […] The cells were counted and seeded in 96-well plates with a cell density of 10,000 cells/mL. The following formula was used to adjust the cell concentrations (Equation 1): (1) Concentration of the cells=Cells counted/number of blocks counted×10000.
The HepG2 cell line was seeded with a concentration of 1 × 10^5 cells/well. […] The absorbance was read at 490 nm with a reference wavelength of 690 nm using a BIO-TEK Power-Wave XS multiwell plate reader. The assay was performed in triplicate, and the mean IC50 values were calculated.

Details of assay [3]: method as in Koo et al. (2006) [16]. The conditions noted are these: ref Koo et al. (2006) [16]; read-out: DPPH radical scavenging EC50; cited from earlier work.

Molecules are shown by their SMILES. Read-outs that look alike come from different tables or passages of the source. Bounds are passed on as bounds.

The IC50 is the concentration that gives 50% inhibition. For orientation: EC50 means the concentration needed to bring the measured effect to its halfway point. Take `C[C@@H]1O[C@@H](O[C@@H]2[C@@H](O)[C@H](OCCc3ccc(O)c(O)c3)O[C@H](CO)[C@H]2OC(=O)/C=C/c2ccc(O)c(O)c2)[C@H](O)[C@H](O)[C@H]1O` [Verbascoside]: the half-inhibitory concentration (IC50) with PBMCs is 384 µM; in assay [1], 2.5 ± 0.02 µM; in assay [2] it was 170 ± 3.73 µM; in assay [2] (Homo sapiens, PBMC) it was above 100 µM. Moreover, the concentration for a half-maximal effect (EC50) in assay [3] is 1.28 µM.
